This passage reports IC50 results from patent US12338256B2, “Aza-tetracyclic oxazepine compounds and uses thereof” (Genentech, Inc., priority 2022, dated 2025).

Holding throughout (format): cell-based
In test [1] the test system is HPAC (homozygous mutant KRAS G12D human pancreatic cell line). Kind of test: KRAS 3D-Cell Proliferation Assay, HPAC (Example 503). As to conditions: Homo sapiens, HPAC, 168 h, HPAC 3D culture, 7 days, CellTiter-Glo 3D; read-out: Prolif HPAC 3D ATP IC50. An outline of the steps:
(§1)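 Luminescent ATP readout (CellTiter-Glo 3D, with mechanical mixing) measures growth of cells cultured in 3D after a 7-day compound exposure at 37° C. Percent inhibition is referenced to vehicle (DMSO) and 1 μM staurosporine controls, and IC50 comes from a four-parameter Hill fit.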
(Cellular ATP, detected with luciferase, serves as a proxy for viable cell number.)

For test [2], the system named is H1975 (KRAS wild type human lung adenocarcinoma cell line). Description: KRAS 3D-Cell Proliferation Assay, H1975 (Example 503). As to conditions: Homo sapiens, NCI-H1975, 168 h, H1975 3D culture, 7 days, CellTiter-Glo 3D; read-out: Prolif H1975 3D ATP IC50. The method, boiled down:
as §1

Test [3] deals with AsPC-1 (homozygous mutant KRAS G12D human pancreatic cell line). Description: KRAS 3D-Cell Proliferation Assay, AsPC-1 (Example 503). As to conditions: Homo sapiens, ASPC1, 168 h, AsPC-1 3D culture, 7 days, CellTiter-Glo 3D; read-out: Prolif AsPC-1 3D ATP IC50. An outline of the steps:
as §1

A word on the IC50: it is the concentration at which inhibition is half-maximal. With `Cc1c(F)c(N)cc(-c2nc3c4c(nc(OCC5(CN6CCO[C@H](C)C6)CC5)nc4c2F)N2C[C@H]4CC[C@H](N4)[C@H]2[C@H](C)O3)c1C(F)(F)F` [Compound 168, 2-Fluoro-5-((5S,5aS,6S,9R)-1-fluoro-5-methyl-12-((1-(((R)-2-methylmorpholino)methyl)cyclopropyl)methoxy)-5a,6,7,8,9,10-hexahydro-5H-4-oxa-3,10a,11,13,14-pentaaza-6,9-methanonaphtho[1,8-ab]heptalen-2-yl)-3-methyl-4-(trifluoromethyl)aniline], the half-maximal inhibitory concentration (IC50) in test [1] stood at 0.472 nM; in test [2], 656 nM; in test [3], 0.7 nM.
The matching figures for `C[C@@H]1Oc2nc(-c3cc(N)c(F)c(F)c3CC(F)F)c(F)c3nc(OC[C@@]45CCCN4C[C@H](F)C5)nc(c23)N2C[C@H]3CC[C@H](N3)[C@@H]12` [Compound 190, 4-(2,2-Difluoroethyl)-2,3-difluoro-5-((5S,5aS,6S,9R)-1-fluoro-12-(((2R,7aS)-2-fluorotetrahydro-1H-pyrrolizin-7a(5H)-yl)methoxy)-5-methyl-5a,6,7,8,9,10-hexahydro-5H-4-oxa-3,10a,11,13,14-pentaaza-6,9-methanonaphtho[1,8-ab]heptalene-2-yl)aniline]: 2.2 nM, 1560 nM and 12.6 nM.
As for `Cc1c(F)c(N)c(F)c(-c2nc3c4c(nc(OCC5(CN6CCOCC6)CC5)nc4c2F)N2C[C@H]4CC[C@H](N4)[C@H]2[C@H](C)O3)c1C(F)(F)F` [Compound 224, 2,6-Difluoro-3-((5S,5aS,6S,9R)-1-fluoro-5-methyl-12-((1-(morpholinomethyl)cyclopropyl)methoxy)-5a,6,7,8,9,10-hexahydro-5H-4-oxa-3,10a,11,13,14-pentaaza-6,9-methanonaphtho[1,8-ab]heptalen-2-yl)-5-methyl-4-(trifluoromethyl)aniline], the IC50 in test [1] is 2.72 nM; in test [2], 711 nM; in test [3] it was 3.5 nM.
With `Cc1c(F)c(N)cc(-c2nc3c4c(nc(OC[C@@]56CCCN5CC5(CC5(F)F)C6)nc4c2F)N2C[C@H]4CC[C@H](N4)[C@H]2[C@H](C)O3)c1C(F)(F)F` (stereo partly drawn) [Compound 62, 5-((5S,5aS,6S,9R)-12-(((7a′S)-2,2-Difluorodihydro-1′H,3′H-spiro[cyclopropane-1,2′-pyrrolizin]-7a′(5′H)-yl)methoxy)-1-fluoro-5-methyl-5a,6,7,8,9,10-hexahydro-5H-4-oxa-3,10a,11,13,14-pentaaza[6,9]methanonaphtho[1,8-ab]heptalen-2-yl)-2-fluoro-3-methyl-4-(trifluoromethyl)aniline], the IC50 in test [1] was determined as 0.261 nM; in test [2], 111 nM; in test [3] it was 0.3 nM.
Turning to `Cc1c(F)c(N)cc(-c2nc3c4c(nc(OC[C@@]56CCCN5C/C(=C\F)C6)nc4c2F)N2C[C@H]4CC[C@H](N4)[C@H]2[C@H](C)O3)c1C(F)(F)F` [Compound 64, 2-fluoro-5-((5S,5aS,6S,9R)-1-fluoro-12-(((S,Z)-2-(fluoromethylene)tetrahydro-1H-pyrrolizin-7a(5H)-yl)methoxy)-5-methyl-5a,6,7,8,9,10-hexahydro-5H-4-oxa-3,10a,11,13,14-pentaaza-6,9-methanonaphtho[1,8-ab]heptalen-2-yl)-3-methyl-4-(trifluoromethyl)aniline], the IC50 in test [1] is 0.46 nM; in test [2] it was 235 nM; in test [3] it was 0.9 nM.
In the same order, the values of `Cc1c(F)c(N)cc(-c2nc3c4c(nc(OC[C@@]56CCCN5C[C@H](F)C6)nc4c2F)N2C[C@H]4CC[C@H](N4)[C@H]2[C@H](C(F)(F)F)O3)c1C(F)(F)F` [Compound 247, 2-Fluoro-5-((5R,5aS,6S,9R)-1-fluoro-12-(((2R,7aS)-2-fluorotetrahydro-1H-pyrrolizin-7a(5H)-yl)methoxy)-5-(trifluoromethyl)-5a,6,7,8,9,10-hexahydro-5H-4-oxa-3,10a,11,13,14-pentaaza-6,9-methanonaphtho[1,8-ab]heptalene-2-yl)-3-methyl-4-(trifluoromethyl)aniline] are 1.64 nM, 643 nM and 1 nM.
